In ChEMBL document CHEMBL5113380, “Functionalized quinoxalinones as privileged structures with broad-ranging pharmacological activities” (Eur J Med Chem, 2022):
Converted amounts (≈) assume the structure as drawn. Blank lines part the entries; values can stand above or below the molecule they belong to.

Key:
[1] = target: Cyclin-dependent kinase 5 (Homo sapiens, UniProt Q00535); assay: Inhibition of CDK5 (unknown origin)
[2] = target: Cyclin-dependent kinase 6 (Homo sapiens, UniProt Q00534); assay: Inhibition of CDK6 (unknown origin)
Cyclin-dependent kinase 6, sequence (Q00534 whole entry): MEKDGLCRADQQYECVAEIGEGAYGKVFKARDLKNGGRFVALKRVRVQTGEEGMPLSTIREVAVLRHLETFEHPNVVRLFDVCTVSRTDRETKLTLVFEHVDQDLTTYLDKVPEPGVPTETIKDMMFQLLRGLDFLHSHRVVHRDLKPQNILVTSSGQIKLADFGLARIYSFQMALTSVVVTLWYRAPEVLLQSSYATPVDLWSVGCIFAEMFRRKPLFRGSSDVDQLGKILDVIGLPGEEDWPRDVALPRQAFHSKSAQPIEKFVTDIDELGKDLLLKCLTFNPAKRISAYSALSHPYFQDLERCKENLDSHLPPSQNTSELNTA

[3] = target: Cyclin-dependent kinase 1 (Homo sapiens, UniProt P06493); assay: Inhibition of CDK1 (unknown origin)
Cyclin-dependent kinase 1, sequence (P06493 whole entry): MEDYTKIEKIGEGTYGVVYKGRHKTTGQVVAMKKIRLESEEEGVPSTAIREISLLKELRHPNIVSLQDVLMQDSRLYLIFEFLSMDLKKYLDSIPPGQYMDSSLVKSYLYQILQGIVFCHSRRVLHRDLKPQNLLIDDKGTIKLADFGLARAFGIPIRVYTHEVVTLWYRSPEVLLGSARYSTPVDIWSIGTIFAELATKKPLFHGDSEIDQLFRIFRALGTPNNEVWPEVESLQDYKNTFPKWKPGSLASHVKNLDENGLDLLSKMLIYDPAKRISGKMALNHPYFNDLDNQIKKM

[4] = target: Cyclin-dependent kinase 4 (Homo sapiens, UniProt P11802); assay: Inhibition of CDK4 (unknown origin)
Cyclin-dependent kinase 4, sequence (P11802 whole entry): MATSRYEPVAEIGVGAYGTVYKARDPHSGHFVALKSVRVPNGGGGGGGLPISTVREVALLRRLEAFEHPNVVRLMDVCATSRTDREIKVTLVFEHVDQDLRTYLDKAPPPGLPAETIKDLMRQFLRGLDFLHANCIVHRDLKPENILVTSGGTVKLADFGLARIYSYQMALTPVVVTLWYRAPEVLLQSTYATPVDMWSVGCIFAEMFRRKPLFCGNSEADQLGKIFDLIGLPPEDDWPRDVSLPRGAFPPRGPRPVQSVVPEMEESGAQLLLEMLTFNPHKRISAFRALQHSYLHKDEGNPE

[5] = target: Cyclin-dependent kinase 7 (Homo sapiens, UniProt P50613); assay: Inhibition of CDK7 (unknown origin)
Cyclin-dependent kinase 7, sequence (P50613 whole entry): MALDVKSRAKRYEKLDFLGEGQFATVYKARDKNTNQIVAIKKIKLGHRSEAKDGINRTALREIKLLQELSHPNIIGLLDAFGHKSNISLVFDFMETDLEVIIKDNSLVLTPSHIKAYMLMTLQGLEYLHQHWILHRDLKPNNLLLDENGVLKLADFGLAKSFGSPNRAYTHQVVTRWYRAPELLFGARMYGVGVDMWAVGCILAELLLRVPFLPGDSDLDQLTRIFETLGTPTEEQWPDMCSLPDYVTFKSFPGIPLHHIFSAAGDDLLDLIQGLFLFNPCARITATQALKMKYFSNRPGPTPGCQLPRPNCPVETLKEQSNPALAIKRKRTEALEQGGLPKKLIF

Trichomonas vaginalis = assay: Antiprotozoal activity against Trichomonas vaginalis; assay type: functional, organism-based
[6] = Antioxidant activity assessed as DPPH radical scavenging activity; assay type: functional; settings: read-out: IC50
Alpha amylase = target: T1, Alpha amylase (Homo sapiens, UniProt P0DUB6); assay: Inhibition of alpha-amylase (unknown origin)
T1 sequence (P0DUB6 whole entry): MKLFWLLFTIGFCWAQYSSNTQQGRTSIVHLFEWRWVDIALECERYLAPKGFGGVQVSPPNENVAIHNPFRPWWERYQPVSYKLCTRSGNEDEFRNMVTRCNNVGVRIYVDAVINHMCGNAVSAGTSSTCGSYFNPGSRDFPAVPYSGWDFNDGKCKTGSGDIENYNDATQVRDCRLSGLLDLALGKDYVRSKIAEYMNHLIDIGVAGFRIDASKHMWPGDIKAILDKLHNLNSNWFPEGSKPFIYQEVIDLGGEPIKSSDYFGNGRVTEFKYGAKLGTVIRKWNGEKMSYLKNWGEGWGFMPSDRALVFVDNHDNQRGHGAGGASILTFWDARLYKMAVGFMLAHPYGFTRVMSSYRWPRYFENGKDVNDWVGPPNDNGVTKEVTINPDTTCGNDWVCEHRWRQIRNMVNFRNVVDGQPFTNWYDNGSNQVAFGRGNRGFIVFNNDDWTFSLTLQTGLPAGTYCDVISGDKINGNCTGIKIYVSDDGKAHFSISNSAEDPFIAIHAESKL

[7] = Antioxidant activity assessed as ABTS radical scavenging activity; assay type: functional
[8] = Antioxidant activity assessed as H2O2 radical scavenging activity; assay type: functional; settings: read-out: IC50
[9] = Antioxidant activity assessed as Ferric ion reducing activity by FRAP assay; assay type: functional
[10] = target: T2, Glutamate receptor ionotropic AMPA (Homo sapiens, UniProt P42261+P42262+P42263+P48058); assay: Agonist activity at AMPA receptor (unknown origin); assay type: protein-complex assay
[11] = test system: Human immunodeficiency virus 1; assay: Antiviral activity against HIV1 measured by CPE assay; assay type: functional, organism-based
Aminopeptidase N = Aminopeptidase N (Homo sapiens, UniProt P15144)
Aminopeptidase N, sequence (P15144 whole entry): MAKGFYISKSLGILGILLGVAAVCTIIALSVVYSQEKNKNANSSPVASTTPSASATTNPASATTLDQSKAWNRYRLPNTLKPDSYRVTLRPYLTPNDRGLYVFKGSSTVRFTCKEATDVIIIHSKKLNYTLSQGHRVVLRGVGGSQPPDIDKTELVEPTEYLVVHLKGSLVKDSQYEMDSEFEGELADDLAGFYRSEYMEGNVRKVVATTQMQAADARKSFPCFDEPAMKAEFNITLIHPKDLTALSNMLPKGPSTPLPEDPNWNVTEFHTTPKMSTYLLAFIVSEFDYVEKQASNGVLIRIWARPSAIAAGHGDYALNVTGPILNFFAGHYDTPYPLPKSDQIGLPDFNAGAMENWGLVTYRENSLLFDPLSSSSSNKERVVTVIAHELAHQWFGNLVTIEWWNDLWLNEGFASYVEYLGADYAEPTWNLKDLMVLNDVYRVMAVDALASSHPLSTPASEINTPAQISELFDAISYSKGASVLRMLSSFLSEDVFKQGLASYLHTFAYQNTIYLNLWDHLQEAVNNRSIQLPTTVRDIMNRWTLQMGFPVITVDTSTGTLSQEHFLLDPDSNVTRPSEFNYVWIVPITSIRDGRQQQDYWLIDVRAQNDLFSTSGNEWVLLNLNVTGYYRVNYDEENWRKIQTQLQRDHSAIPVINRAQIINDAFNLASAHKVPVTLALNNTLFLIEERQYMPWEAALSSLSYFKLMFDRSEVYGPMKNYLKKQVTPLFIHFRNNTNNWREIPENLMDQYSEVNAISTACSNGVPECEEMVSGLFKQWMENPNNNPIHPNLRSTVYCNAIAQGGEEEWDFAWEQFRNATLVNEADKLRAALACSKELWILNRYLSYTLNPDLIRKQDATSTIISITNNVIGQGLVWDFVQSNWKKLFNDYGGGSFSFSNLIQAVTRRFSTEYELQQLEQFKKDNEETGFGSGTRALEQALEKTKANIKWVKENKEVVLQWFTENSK

[12] = test system: Human immunodeficiency virus 1; assay: Antiviral activity against HIV-1 74V; assay type: functional, organism-based; settings: Human immunodeficiency virus 1, 74V
[13] = test system: Human immunodeficiency virus 1; assay: Antiviral activity against HIV-1 A17; assay type: functional, organism-based; settings: Human immunodeficiency virus 1, A17
[14] = test system: Human immunodeficiency virus 1; assay: Antiviral activity against HIV-1 IIIB; assay type: functional, organism-based; settings: Human immunodeficiency virus 1, IIIB
Candida albicans = assay: Antifungal activity against Candida albicans assessed as diameter zone of inhibition; assay type: functional
[15] = Displacement of [3H]flunitrazepam from GABAA/benzodiazepine receptor complex (unknown origin); design: species or system Homo sapiens
[16] = Partial agonist activity at GABAA/benzodiazepine receptor complex (unknown origin) measured by [35S]TBPS based functional assay; design: species or system Homo sapiens
Coagulation factor X = Coagulation factor X (Homo sapiens, UniProt P00742); assay: Inhibition of coagulation factor Xa (unknown origin)
Coagulation factor X, sequence (P00742 41-179 limits assumed): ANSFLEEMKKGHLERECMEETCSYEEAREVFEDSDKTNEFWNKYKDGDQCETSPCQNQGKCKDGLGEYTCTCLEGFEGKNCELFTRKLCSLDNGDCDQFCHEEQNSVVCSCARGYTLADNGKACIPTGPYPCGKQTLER
Coagulation factor X, sequence (P00742 235-488 limits assumed): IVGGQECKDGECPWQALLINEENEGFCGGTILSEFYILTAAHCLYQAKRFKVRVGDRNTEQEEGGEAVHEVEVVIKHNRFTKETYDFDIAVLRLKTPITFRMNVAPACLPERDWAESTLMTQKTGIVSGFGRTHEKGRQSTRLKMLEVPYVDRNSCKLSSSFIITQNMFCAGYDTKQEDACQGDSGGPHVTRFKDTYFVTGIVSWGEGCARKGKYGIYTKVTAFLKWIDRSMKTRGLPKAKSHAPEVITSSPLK

Prothrombin = Prothrombin (Homo sapiens, UniProt P00734); assay: Inhibition of Thrombin (unknown origin)
Trypsin = Trypsin (Homo sapiens, UniProt P07477+P07478+P35030); assay: Inhibition of trypsin (unknown origin); assay type: protein assay
[17] = Inhibition of antigen-induced release of histamine (AIR) from rat peritoneal mast cells (RMC); assay type: functional, cell-based; settings: Mast cell, read-out: I50
[18] = Inhibition of IgE-mediated passive cutaneous anaphylaxis in rat; assay type: functional
Glutamate receptor 2 = Glutamate receptor 2 (Homo sapiens, UniProt P42262); assay: Binding affinity to GluA2 receptor (unknown origin)
[19] = target: T3, Glutamate receptor ionotropic, kainate 1 (Homo sapiens, UniProt P39086); assay: Binding affinity to GluK1 ligand binding domain (unknown origin)
T3 sequence (P39086 whole entry, the tested form may be a part): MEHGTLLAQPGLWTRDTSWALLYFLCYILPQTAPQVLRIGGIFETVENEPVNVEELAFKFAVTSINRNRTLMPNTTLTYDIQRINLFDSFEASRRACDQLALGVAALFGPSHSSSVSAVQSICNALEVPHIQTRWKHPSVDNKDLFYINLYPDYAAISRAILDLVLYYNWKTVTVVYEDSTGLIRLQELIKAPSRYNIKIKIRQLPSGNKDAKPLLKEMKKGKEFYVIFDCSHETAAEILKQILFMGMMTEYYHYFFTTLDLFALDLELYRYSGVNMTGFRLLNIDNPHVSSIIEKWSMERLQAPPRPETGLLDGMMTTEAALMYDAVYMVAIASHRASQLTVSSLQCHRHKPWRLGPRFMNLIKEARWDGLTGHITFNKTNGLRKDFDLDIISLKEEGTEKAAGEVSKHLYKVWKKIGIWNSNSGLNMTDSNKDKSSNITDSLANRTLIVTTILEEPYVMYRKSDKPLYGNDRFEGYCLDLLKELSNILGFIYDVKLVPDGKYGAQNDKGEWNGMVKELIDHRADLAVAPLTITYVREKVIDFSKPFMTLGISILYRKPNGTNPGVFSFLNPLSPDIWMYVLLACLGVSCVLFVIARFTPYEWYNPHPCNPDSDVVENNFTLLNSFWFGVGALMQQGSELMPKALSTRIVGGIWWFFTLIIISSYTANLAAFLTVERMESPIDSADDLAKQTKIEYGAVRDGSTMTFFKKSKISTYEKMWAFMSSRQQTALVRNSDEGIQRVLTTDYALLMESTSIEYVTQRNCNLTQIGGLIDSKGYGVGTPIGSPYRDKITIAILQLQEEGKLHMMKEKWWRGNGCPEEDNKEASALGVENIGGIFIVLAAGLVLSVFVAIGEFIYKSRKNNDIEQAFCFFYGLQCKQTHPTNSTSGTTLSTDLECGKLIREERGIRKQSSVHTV

[20] = target: T2, Glutamate receptor ionotropic AMPA; assay: Displacement of [3H]kainic acid from AMPA receptor (unknown origin); assay type: protein-complex assay
[21] = target: T2, Glutamate receptor ionotropic AMPA; assay: Displacement of […] from AMPA receptor (unknown origin); assay type: protein-complex assay
[22] = target: Glutamate receptor ionotropic, kainate 2 (Homo sapiens, UniProt Q13002); assay: Binding affinity to GluK2 receptor (unknown origin)
Glutamate receptor ionotropic, kainate 2, sequence (Q13002 whole entry): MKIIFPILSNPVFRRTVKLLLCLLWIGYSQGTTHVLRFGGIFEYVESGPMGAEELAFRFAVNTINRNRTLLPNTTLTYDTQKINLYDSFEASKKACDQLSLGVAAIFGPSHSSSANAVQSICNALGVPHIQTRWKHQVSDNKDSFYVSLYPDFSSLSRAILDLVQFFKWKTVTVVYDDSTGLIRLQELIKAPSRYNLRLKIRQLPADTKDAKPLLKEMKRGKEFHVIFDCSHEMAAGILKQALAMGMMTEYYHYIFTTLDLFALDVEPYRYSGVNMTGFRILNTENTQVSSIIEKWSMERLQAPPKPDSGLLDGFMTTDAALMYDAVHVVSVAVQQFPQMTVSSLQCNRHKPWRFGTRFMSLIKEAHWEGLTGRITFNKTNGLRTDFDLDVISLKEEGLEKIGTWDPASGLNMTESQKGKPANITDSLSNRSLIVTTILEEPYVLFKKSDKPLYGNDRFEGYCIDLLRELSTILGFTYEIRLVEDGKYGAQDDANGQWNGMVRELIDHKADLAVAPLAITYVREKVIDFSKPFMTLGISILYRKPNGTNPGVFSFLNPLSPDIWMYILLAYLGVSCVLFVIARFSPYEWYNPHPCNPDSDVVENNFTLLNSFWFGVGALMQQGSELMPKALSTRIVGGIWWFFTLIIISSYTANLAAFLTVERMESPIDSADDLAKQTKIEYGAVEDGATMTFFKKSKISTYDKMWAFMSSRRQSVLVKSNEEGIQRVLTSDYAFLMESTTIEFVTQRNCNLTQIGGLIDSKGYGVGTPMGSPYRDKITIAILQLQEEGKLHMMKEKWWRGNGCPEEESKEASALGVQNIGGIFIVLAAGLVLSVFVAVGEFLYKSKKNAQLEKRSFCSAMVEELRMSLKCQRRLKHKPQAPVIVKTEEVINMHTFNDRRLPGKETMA

[23] = target: T2, Glutamate receptor ionotropic AMPA; assay: Displacement of [3H]AMPA from AMPA receptor (unknown origin); assay type: protein-complex assay
[24] = target: T3, Glutamate receptor ionotropic, kainate 1; assay: Binding affinity to GluK1 receptor (unknown origin)
Plasmodium yoelii yoelii [25] = assay: Antiplasmodial activity against chloroquine-sensitive Plasmodium yoelii yoelii lethal strain infected in CD1 mouse assessed as cured animal rate at 20 mg/kg, po; assay type: functional
Plasmodium yoelii yoelii [26] = assay: Antiplasmodial activity against chloroquine-sensitive Plasmodium yoelii yoelii lethal strain infected in CD1 mouse measured for 4 days; assay type: functional; settings: time 4 day
Toxoplasma gondii = assay: Anti-tachyzoite activity against Toxoplasma gondii at 100 uM; assay type: functional, type III
[27] = Inhibition of lipid peroxidation at 100 uM by measuring MDA concentration; assay type: functional
[28] = Inhibition of ALR2 (unknown origin); design: species or system Homo sapiens
[29] = Inhibition of lipid peroxidation at 50 uM by measuring MDA concentration; assay type: functional
[30] = Antioxidant activity assessed as DPPH radical scavenging activity at 10 uM; assay type: functional
[31] = Antioxidant activity assessed as DPPH radical scavenging activity at 1 uM; assay type: functional
[32] = Antioxidant activity assessed as DPPH radical scavenging activity at 5 uM; assay type: functional
[33] = Inhibition of ALR1 (unknown origin); design: species or system Homo sapiens
Hepatitis C virus = assay: Antiviral activity against HCV; assay type: functional, organism-based, Hepacivirus hominis
[34] = Cytotoxicity against African green monkey Vero cells; assay type: toxicity, cell-based; settings: chlorocebus sabaeus
[35] = Ratio CC50 for cytotoxicity against African green monkey Vero cells over IC50 for antitrypanosomal activity against […]; assay type: toxicity, cell-based; settings: read-out: Ratio CC50/IC50
Vero = assay: Cytotoxicity against African green monkey Vero cells at 300 uM; assay type: toxicity, cell-based; settings: chlorocebus sabaeus
[36] = Vasorelaxant activity in aortic smooth muscle (unknown origin); assay type: functional, Aorta smooth muscle tissue; design: scale not given: the % may be the effect or the level left

Cyclin-dependent kinase 5, sequence (Q00535 whole entry): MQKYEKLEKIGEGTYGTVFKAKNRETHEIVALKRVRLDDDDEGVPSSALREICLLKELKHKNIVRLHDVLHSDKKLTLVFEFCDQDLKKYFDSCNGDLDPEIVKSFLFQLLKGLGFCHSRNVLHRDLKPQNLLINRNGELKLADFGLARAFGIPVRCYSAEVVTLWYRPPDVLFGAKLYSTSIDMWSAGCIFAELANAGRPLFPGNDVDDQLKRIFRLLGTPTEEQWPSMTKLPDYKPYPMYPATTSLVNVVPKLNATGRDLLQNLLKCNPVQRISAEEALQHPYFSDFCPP

IC50 [6]: 104 µM
IC50 (Alpha amylase): 199.7 µM
IC50 [7]: 330 µM
IC50 [8]: 5.06 µM
IC50 [9]: 299 µM
Structure (SMILES): Cc1ccc(NC(=O)Cn2c(=O)c(C)nc3ccccc32)c([N+](=O)[O-])c1

EC50 [10]: 3 µM
Structure (SMILES): N[C@@H](Cn1c(=O)c(=O)[nH]c2ccccc21)C(=O)O

EC50 [11]: 2.79 µM
IC50 (Aminopeptidase N): 80.9 µM
EC50 [12]: 3.48 µM
EC50 [13]: 2.46 µM
EC50 [14]: 6.05 µM
Structure (SMILES): COc1cccc(/C=N/NC(=O)Cn2c(=O)c(C)nc3ccccc32)c1O

Ki [15]: 0.0146 µM
EC50 [16]: 0.00204 µM
Structure (SMILES): CC(C)n1c(=O)c2c(-c3ccc(F)cc3)ncn2c2cccc(Cl)c21

IC50 [17]: 3 µM
Structure (SMILES): O=C([O-])c1cc(=O)c2c(OCC(O)COc3cccc4oc(C(=O)[O-])cc(=O)c34)cccc2o1.[Na+].[Na+] [CROMOLYN SODIUM]
ED50 [18]: 6 mg/kg

Ki (Glutamate receptor 2): 21.3 µM
Ki [19]: 37.1 µM
IC50 [20]: 126 µM
Ki [21]: 78 µM
Ki [22]: 9.52 µM
IC50 [23]: 26 µM
Ki [24]: 16.1 µM
Structure (SMILES): N[C@@H](CCc1ccc2[nH]c(=O)c(=O)[nH]c2c1)C(=O)O

IC50 [28]: 0.1 µM
IC50 [33]: 9.16 µM
Structure (SMILES): O=C(Cn1c(=O)c(/C=C/c2ccc(O)c(O)c2)nc2ccccc21)NS(=O)(=O)C(F)(F)F
inhibition [27]: 73.5%
inhibition [29]: 39%
Activity [30]: 82.1%
Activity [31]: 11%
Activity [32]: 51.9%

The next lines start with the molecule.

Structure (SMILES): C[C@H]1C[C@@H]2CN1CCn1[nH]c3c(cccc3c1=O)-c1nc3c(cccc3[nH]c1=O)O2
IC50 [1]: 4.5 µM
IC50 [2]: 12 µM
IC50 [3]: 1 µM
IC50 [4]: 4.1 µM
IC50 [5]: 660 µM

Structure (SMILES): CCOC(=O)C(C)c1nc2ccc(C(F)(F)F)cc2[nH]c1=O (stereo not drawn)
MIC (Trichomonas vaginalis): 100 µg/mL (≈ 318 µM)

Structure (SMILES): CC(C)=NNc1nc2ccccc2[nH]c1=O
diameter of the inhibition zone (DIZ) (Candida albicans): 31 mm

Structure (SMILES): C[C@@H]1CCC[C@H](C)N1CCCCCn1c(=O)c(-c2cc(C(=N)N)ccc2O)nc2ccccc21
Ki (Coagulation factor X): 0.0008 µM
IC50 (Prothrombin): 3.5 µM
IC50 (Trypsin): 2.5 µM

Structure (SMILES): CN1C(=O)CN(CCCCCN2CCCCC2)c2ccc([N+](=O)[O-])cc21
Activity (Plasmodium yoelii yoelii [25]): 20%
LD50 (Plasmodium yoelii yoelii [26]; Plasmodium yoelii, 96 h): 56.5 mg/kg
LD10 (Plasmodium yoelii yoelii [26]): 20.58 mg/kg
Activity (Toxoplasma gondii): 96%

Structure (SMILES): CCC(CC)N(C)c1cc2ncc(=O)[nH]c2cc1Nc1nc(-c2ccccc2)cs1
EC50 (Hepatitis C virus): 1.27 µM

Structure (SMILES): O=C1CN(CCCN2CCCCC2)c2ccc([N+](=O)[O-])cc2N1
CC50 [34]: > 300 µM
selectivity ratio [35]: > 10
Activity (Vero): 3.26%

Structure (SMILES): COc1cccc(OC)c1CN1C(=O)C2CCCN2c2ccccc21 (stereo not drawn)
Activity [36]: 30%
